# Like-named read-outs stand apart in the source and are kept apart here.
# Columns and labels:
# cyclin E/CDK2 enzyme = target: T1, cyclin E/CDK2 enzyme (Homo sapiens, UniProt P24941); test: CDK2 ELISA kinase assay (phospho-Rb ser 795 detection); assay type: biochemical
# T1 construct: made in house; host or cells: Sf9 insect cells, recombinant baculovirus
# Description: (§1) • 1. High-binding ELISA microtiter plates (Costar) were coated with 40 μl of the kinase substrate (GST fusion of C-terminal fragment of the retinoblastoma susceptibility gene product) diluted to 10 μg/ml in tris-buffered saline (TBS), overnight at 4° C. • 2. Non-specific binding sites were blocked for 1 hour at 4° C. with Superblock in TBS (Pierce), and the plates rinsed with water. • 3. For the screen, 1.5 μl of test compound (200 μg/ml stock in 20% DMSO/20 mM HEPES, pH 7.5) was added to each well. Final dose of the test compound in the assay was 10 ug/ml. […] The kinase reaction (30 μl) was dispensed into each well. Reactions contained 200 μM ATP, 0.5 mg/ml bovine serum albumin (BSA; Sigma), and 0.5 μl partially purified cyclin D1/cdk 4 enzyme*. The enzyme complex is expressed in insect cells (Sf9) infected with recombinant baculovirus and partially purified using ammonium sulfate fractionation. Reaction volumes were adjusted to 30 μl with kinase assay buffer (50 mM HEPES, pH 7.5, 10 mM MgCl2, 5% glycerol, 10 mM 2-mercaptoethanol). • *: For CDK2 assay, 1.0 μl cyclin E/CDK2 enzyme (diluted 1:1000 in kinase assay buffer) was used. The enzyme is isolated from insect cells (Sf9) infected with recombinant baculovirus and partially purified using ammonium sulfate fractionation. For CDK1 assay, 0.08 μl cyclin B/CDK1 enzyme [New England BioLabs; the enzyme is isolated from insect cells (Sf9) infected with recombinant baculovirus carrying human cdc 2 and human cyclin B] was used.
# (§2) […] • 5. Plates were incubated at 30° C. for 1 hour. • 6. The reaction mixture was removed by aspiration and replaced with 250 μl TBS containing 0.1% Tween-20 and 5% nonfat dry milk (blocking buffer). The plates were incubated at 4° C. for 1 hour. • 7. The blocking buffer was removed and replaced with 50 μl of the primary antibody [anti-phospho-Rb ser 795 (New England BioLabs) diluted 1:1000 in blocking buffer]. Incubation was at 4° C. for 16-20 hours. • 8. The wells were rinsed 3 times with 250 μl of TBS containing 0.1% Tween-20 followed by the addition of 50 μl of secondary antibody [anti-rabbit IgG conjugated to horseradish peroxidase (Amersham Life Science) diluted 1:1000 in blocking buffer]. • 9. After a 1 hour incubation at room temperature, the wells were rinsed 3 times with 250 μl of TBS/0.1% Tween 20. • 10. TMB (3,3′,5,5′-tetramethylbenzidine dihydrochloride) substrate solution (100 μl; Pierce) was added to each well and the color development reaction allowed to proceed 5-10 minutes at room temperature with shaking. The reaction was stopped by the addition of 2N sulfuric acid (100 μl) and the absorbance values read at 450 nm in a microplate reader (Molecular Devices). Analysis of Results: • 1. The percentage of the absorbance value in wells containing the test compound relative to control wells (no test agent) was determined. • 2. IC50 values of selected compounds were determined from inhibition curves, after subtracting background values (no substrate).
# cyclin D1/cdk 4 enzyme = target: T2, cyclin D1/cdk 4 enzyme (Homo sapiens, UniProt P11802); test: CDK4 ELISA kinase assay (phospho-Rb ser 795 detection); assay type: biochemical
# T2 construct: made in house; host or cells: Sf9 insect cells, recombinant baculovirus
# T2 sequence (P11802 whole entry, species assumed): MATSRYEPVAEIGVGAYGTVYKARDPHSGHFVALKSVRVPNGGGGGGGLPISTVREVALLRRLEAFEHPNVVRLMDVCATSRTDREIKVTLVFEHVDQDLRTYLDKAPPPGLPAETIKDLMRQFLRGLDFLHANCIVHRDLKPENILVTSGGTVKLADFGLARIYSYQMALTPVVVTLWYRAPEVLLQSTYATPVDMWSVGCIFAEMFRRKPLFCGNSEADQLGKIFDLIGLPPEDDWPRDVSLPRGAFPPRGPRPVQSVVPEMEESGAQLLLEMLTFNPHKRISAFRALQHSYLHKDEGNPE
# T2 sequence (P24385 whole entry partner, species assumed): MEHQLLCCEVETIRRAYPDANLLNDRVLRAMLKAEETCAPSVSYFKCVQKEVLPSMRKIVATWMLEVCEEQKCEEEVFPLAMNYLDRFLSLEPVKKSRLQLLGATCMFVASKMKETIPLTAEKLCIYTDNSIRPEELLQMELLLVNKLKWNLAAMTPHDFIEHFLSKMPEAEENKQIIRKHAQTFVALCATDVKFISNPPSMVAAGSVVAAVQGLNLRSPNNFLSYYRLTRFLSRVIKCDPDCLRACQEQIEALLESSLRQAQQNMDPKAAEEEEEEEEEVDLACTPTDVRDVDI
# Outline: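 Inhibition was derived from A450 relative to control wells lacking compound, following an anti-phospho-Rb Ser795 sandwich of HRP detection. The reactions combined coated GST-Rb fragment, 200 μM ATP and baculovirus-expressed cyclin/CDK enzymes, incubated for 1 h at 30° C.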
# BT474 = test: Cytotoxicity assay (SRB), BT474; assay type: cell-based
# Outline: (§3)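 Cells were seeded overnight in RPMI 1640 with 5% FBS at 37 °C, 7% CO2 (12000/well BT474, 4000 HCT-116, 6000 LoVo, 6000 MCF-7), then exposed to compound dilutions for 3 days (6 days for BT474). Survival versus untreated controls was measured by TCA fixation and SRB staining at 540 nm.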
# HCT-116 = test: Cytotoxicity assay (SRB), HCT-116; assay type: cell-based; conditions: HCT116 cells, SRB, read-out: In Vitro Cellular Activity IC50 HCT116
# Outline: as §3
# LoVo = test: Cytotoxicity assay (SRB), LoVo; assay type: cell-based; conditions: LoVo cells, SRB, read-out: In Vitro Cellular Activity IC50 LOVO
# Outline: as §3
# MCF-7 = test: Cytotoxicity assay (SRB), MCF-7; assay type: cell-based; conditions: MCF-7 cells, SRB, read-out: In Vitro Cellular Activity IC50 MCF-7
# Outline: as §3
# cyclin B/CDK1 enzyme = target: T3, cyclin B/CDK1 enzyme (Homo sapiens, UniProt P06493); test: CDK1 ELISA kinase assay (phospho-Rb ser 795 detection); assay type: biochemical
# T3 construct: purchased New England BioLabs; host or cells: Sf9 insect cells, recombinant baculovirus
# T3 sequence (P06493 whole entry): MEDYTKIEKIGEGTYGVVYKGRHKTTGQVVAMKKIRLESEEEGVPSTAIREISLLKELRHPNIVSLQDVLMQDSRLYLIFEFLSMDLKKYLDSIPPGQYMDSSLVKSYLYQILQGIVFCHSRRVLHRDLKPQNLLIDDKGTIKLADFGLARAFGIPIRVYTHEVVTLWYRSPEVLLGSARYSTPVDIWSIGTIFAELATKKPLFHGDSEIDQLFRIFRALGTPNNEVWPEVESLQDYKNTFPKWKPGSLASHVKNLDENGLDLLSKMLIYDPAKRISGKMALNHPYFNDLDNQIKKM
# T3 sequence (P14635 whole entry partner): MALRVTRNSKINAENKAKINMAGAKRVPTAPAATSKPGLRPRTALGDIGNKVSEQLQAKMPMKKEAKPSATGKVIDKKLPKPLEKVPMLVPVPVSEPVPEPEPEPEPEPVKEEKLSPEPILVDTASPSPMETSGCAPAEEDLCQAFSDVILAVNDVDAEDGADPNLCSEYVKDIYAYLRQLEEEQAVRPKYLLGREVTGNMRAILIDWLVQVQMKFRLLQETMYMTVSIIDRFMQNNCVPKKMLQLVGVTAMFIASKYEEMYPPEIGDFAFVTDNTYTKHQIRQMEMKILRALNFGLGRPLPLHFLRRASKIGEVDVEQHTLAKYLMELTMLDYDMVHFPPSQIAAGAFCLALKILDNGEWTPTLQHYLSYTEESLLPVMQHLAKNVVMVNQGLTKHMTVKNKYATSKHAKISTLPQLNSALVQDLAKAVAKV
# Description: as §1, §2
# [1] = In Vitro Enzyme Assays, read-out: CDK2 IC50
# [2] = In Vitro Enzyme Assays, 200 μM ATP, read-out: CDK4 IC50
# [3] = Homo sapiens, BT-474, 144 h, BT474 cells, SRB, 6 days; read-out: In Vitro Cellular Activity IC50 BT474
# [4] = Homo sapiens, HCT-116, 72 h, three days
# [5] = Homo sapiens, LoVo, 72 h, three days
# [6] = Homo sapiens, MCF7, 72 h, three days
# [7] = In Vitro Enzyme Assays, read-out: CDK1 IC50
# [8] = Homo sapiens, BT-474, 144 h, BT474 cells, 6 days, SRB; read-out: In Vitro Cellular Activity IC50 BT474
# [9] = Homo sapiens, HCT-116, 72 h, 3 days
# [10] = Homo sapiens, LoVo, 72 h, 3 days
# [11] = Homo sapiens, MCF7, 72 h, 3 days
# [12] = In Vitro Enzyme Assay, cyclin E/CDK2, read-out: CDK2 IC50
# [13] = In Vitro Enzyme Assay, cyclin D1/cdk 4, read-out: CDK4 IC50
# [14] = In Vitro Enzyme Assay, cyclin B/CDK1, read-out: CDK1 IC50
Structure (SMILES),IC50 (cyclin D1/cdk 4 enzyme; [2]),IC50 (BT474; [3]),IC50 (HCT-116; [4]),IC50 (LoVo; [5]),IC50 (MCF-7; [6]),IC50 (BT474; [8]),IC50 (HCT-116; [9]),IC50 (LoVo; [10]),IC50 (MCF-7; [11]),IC50 (cyclin D1/cdk 4 enzyme; [13]),other results
"CN1CCN(c2ccc(N/C=C3\C(=O)NC(=O)c4ccc(-c5ccc(C=O)o5)cc43)cc2)CC1 [Example 124, 5-[(4Z)-4-({[4-(4-Methylpiperazin-1-yl)phenyl]amino}methylene)-1,3-dioxo-1,2,3,4-tetrahydroisoquinolin-6-yl]-2-furaldehyde]",0.36 µM,9.1 µM,2.6 µM,5 µM,7.9 µM,–,–,–,–,–,IC50 (cyclin E/CDK2 enzyme; [1]): > 50 µM
"O=C1NC(=O)c2ccc(Br)cc2/C1=C/NCc1ccc(OCCO)c(O)c1 [Example 139, (4Z)-6-Bromo-4-({[3-hydroxy-4-(2-hydroxyethoxy)benzyl]amino}methylene)isoquinoline-1,3(2H,4H)-dione]",0.04 µM,15 µM,> 50 µM,26 µM,> 50 µM,–,–,–,–,–,IC50 (cyclin B/CDK1 enzyme; [7]): > 50 µM
"C=CCOc1ccc(CN/C=C2\C(=O)NC(=O)c3ccc(Br)cc32)cc1O [Example 149, (4Z)-4-({[4-(Allyloxy)-3-hydroxybenzyl]amino}methylene)-6-bromoisoquinoline-1,3(2H,4H)-dione]",0.33 µM,12 µM,18 µM,27 µM,> 50 µM,–,–,–,–,–,IC50 (cyclin B/CDK1 enzyme; [7]): > 50 µM
"O=C1NC(=O)c2ccc(-c3ccoc3)cc2/C1=C/NCc1ccc(OC(F)F)c(O)c1 [Example 199, (4Z)-4-({[4-(Difluoromethoxy)-3-hydroxybenzyl]amino}methylene)-6-(3-furyl)isoquinoline-1,3(2H,4H)-dione]",< 0.005 µM,1.3 µM,6.4 µM,4.1 µM,1.9 µM,–,–,–,–,–,IC50 (cyclin B/CDK1 enzyme; [7]): > 50 µM
"CN1CC2CC1CN2c1ccc(NC=C2C(=O)NC(=O)c3ccc(I)cc32)cc1 (stereo not shown) [Example 221, 6-Iodo-4-{[4-(5-methyl-2,5-diaza-bicyclo[2.2.1]hept-2-yl)-phenylamino]-methylene}-4H-isoquinoline-1,3-dione]",0.32 µM,3.2 µM,1.9 µM,3.2 µM,2.6 µM,–,–,–,–,–,IC50 (cyclin B/CDK1 enzyme; [7]): > 50 µM
"CN(C)CCNC(=O)C1CCN(c2ccc(N/C=C3\C(=O)NC(=O)c4ccc(I)cc43)cc2)CC1 [Example 433, N-[2-(Dimethylamino)ethyl]-1-(4-{[(Z)-(6-iodo-1,3-dioxo-2,3-dihydroisoquinolin-4(1H)-ylidene)methyl]amino}phenyl)piperidine-4-carboxamide]",1.2 µM,–,–,–,–,4.5 µM,2 µM,2.8 µM,3.1 µM,–,IC50 (cyclin E/CDK2 enzyme; [1]): > 50 µM
"O=C1NC(=O)c2ccc(I)cc2/C1=C/NCc1ccc(-c2ccco2)c(O)c1 [Example 505, 4-[(4-Furan-2-yl-3-hydroxy-benzylamino)-methylene]-6-iodo-4H-isoquinoline-1,3-dione]",–,–,–,–,–,0.26 µM,0.38 µM,0.27 µM,0.7 µM,–,IC50 (cyclin E/CDK2 enzyme; [12]): 8.4 µM
"O=C1NC(=O)c2ccc(I)cc2/C1=C/NCc1ccc(-c2cccnc2)c(O)c1 [Example 515, 4-[(3-Hydroxy-4-pyridin-3-yl-benzylamino)-methylene]-6-iodo-4H-isoquinoline-1,3-dione]",–,–,–,–,–,0.34 µM,0.44 µM,0.38 µM,1.1 µM,–,IC50 (cyclin E/CDK2 enzyme; [12]): 3.6 µM
"O=C1NC(=O)c2ccc(I)cc2/C1=C/NCc1ccn(-c2ccccc2)c(=O)c1 [Example 518, (4Z)-6-Iodo-4-({[(2-oxo-1-phenyl-1,2-dihydropyridin-4-yl)methyl]amino}methylene)isoquinoline-1,3(2H,4H)-dione]",–,–,–,–,–,–,–,–,–,0.11 µM,"IC50 (BT474; BT474 cells, 6 days, SRB; read-out: In Vitro Cellular Activity IC50 BT474): 0.08 µM; IC50 (HCT-116; 3 days): 0.23 µM; IC50 (LoVo; 3 days): 0.15 µM; IC50 (cyclin B/CDK1 enzyme; [14]): > 50 µM; IC50 (MCF-7; 3 days): 0.64 µM"
"O=C1NC(=O)c2ccc(I)cc2/C1=C/NCc1cc(O)c(-c2ccoc2)cc1F [Example 520, 4-[(2-Fluoro-4-furan-3-yl-5-hydroxy-benzylamino)-methylene]-6-iodo-4H-isoquinoline-1,3-dione]",–,–,–,–,–,0.66 µM,1.2 µM,0.9 µM,2.2 µM,0.01 µM,IC50 (cyclin E/CDK2 enzyme; [12]): 12.1 µM
"Cc1cccc(-c2ccc3c(c2)C(=CNCc2ccc(O)c(O)c2)C(=O)NC3=O)c1 [Example 782, 4-[(3,4-Dihydroxy-benzylamino)-methylene]-6-m-tolyl-4H-isoquinoline-1,3-dione]",–,–,–,–,–,20.3 µM,15.8 µM,15.8 µM,14.3 µM,2.12 µM,IC50 (cyclin B/CDK1 enzyme; [14]): > 50 µM
"N#CCc1ccc(C=Cc2ccc3c(c2)C(=CNCc2ccc(O)c(O)c2)C(=O)NC3=O)cc1 [Example 805, [4-(2-{4-[(3,4-Dihydroxy-benzylamino)-methylene]-1,3-dioxo-1,2,3,4-tetrahydro-isoquinolin-6-yl}-vinyl)-phenyl]-acetonitrile]",–,–,–,–,–,21.9 µM,13.8 µM,36.3 µM,33.9 µM,0.29 µM,IC50 (cyclin E/CDK2 enzyme; [12]): 23.1 µM
"CN1CCN(c2ccc(NC=C3C(=O)NC(=O)c4ccc(-c5ccco5)cc43)cc2)CC1 [Example 830, 6-Furan-2-yl-4-{[4-(4-methyl-piperazin-1-yl)-phenylamino]-methylene}-4H-isoquinoline-1,3-dione]",–,–,–,–,–,1.2 µM,2.7 µM,3.6 µM,3.3 µM,0.17 µM,IC50 (cyclin B/CDK1 enzyme; [14]): > 50 µM
"COc1ccc(CNC=C2C(=O)NC(=O)c3ccc(-c4ccc5ccccc5c4)cc32)cc1O [Example 834, 4-[(3-Hydroxy-4-methoxy-benzylamino)-methylene]-6-naphthalen-2-yl-4H-isoquinoline-1,3-dione]",–,–,–,–,–,13.2 µM,29.6 µM,23.1 µM,18.6 µM,0.29 µM,IC50 (cyclin B/CDK1 enzyme; [14]): > 50 µM
